In article PMC7316895, “Identification of a Compound That Inhibits the Growth of Gram-Negative Bacteria by Blocking BamA–BamD Interaction” (Frontiers in Microbiology, 2020) one finds Kd data, which are given here for one molecule.

The target of the test is T1, BamA (Escherichia coli, UniProt P0A940).
T1 construct: biotinylated for BLI
Briefly: biolayer interferometry ([…] global fit); supported by GST pull-down showing dose-dependent loss of BamA–BamD interaction. The class given is binding.

Regarding `COC(=O)c1c(NC(=O)c2ccc([N+](=O)[O-])o2)sc2c1CCN(C(C)C)C2` [IMB-H4], the Kd is 3.90E^–6.
